# Results taken from PMC5796017, “Enantiomeric Effect of D-Amino Acid Substitution on the Mechanism of Action of α-Helical Membrane-Active Peptides” (International Journal of Molecular Sciences, 2017).
# How the values were obtained:
# [1] = system: human red blood (hRBC) cells; assay: Hemolytic activity assay; format: cell-based; conditions: 2% human RBC in PBS, 37 °C, 2 h, absorbance 578 nm, triplicate
# In short: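 Healthy human RBCs (2% suspension in PBS) were incubated with serially diluted peptides for 2 h at 37 °C, and released hemoglobin in supernatant was read at 578 nm. Percent hemolysis was taken relative to distilled water (100%) after subtracting PBS (0%); run in triplicate.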
# MIA PaCa-2 = assay: MTT cell viability assay; format: cell-based, human; conditions: MIA PaCa-2, MTT, 24 h; mean ± SEM of three independent determinations
# In short: (§1)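 Cells seeded at 5000 per well in DMEM/10% FBS, exposed to peptides for 24 h at 37 °C. Viability by MTT, formazan dissolved in DMSO, absorbance at 492 nm. IC50 is the concentration giving 50% viability loss; triplicate.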
# HPAC = assay: MTT cell viability assay; format: cell-based, human; conditions: 24 h, mean ± SEM of three independent determinations
# In short: as §1
# HeLa = assay: MTT cell viability assay; format: cell-based, human; conditions: 24 h, mean ± SEM of three independent determinations
# In short: as §1
# BxPC-3 = assay: MTT cell viability assay; format: cell-based, human; conditions: BxPC-3, MTT, 24 h; mean ± SEM of three independent determinations
# In short: as §1
# HeLa cells = assay: AFM imaging; format: cell-based, human; conditions: treatment 5 min, DMEM, AAC mode
# Method: The mechanism of the interaction of the peptides with the different kinds of membranes was further analyzed by AFM. E. coli and HeLa cells were imaged to observe the morphologic change of cell membranes with, and without, treatment with V13K. […] Similarly, the surface of untreated cells fixed with, or without, 4% paraformaldehyde were intact and the membrane surface appeared quite smooth (Figure 4E–H).
# The AFM imaging of E. coli ATCC25922 and HeLa cells before, and after, incubation with V13K were performed using an AFM 5500 (Agilent Technologies, Chandler, AZ, USA). The AFM imaging of E. coli was used on the contact mode and the cantilever was used as the B-tip (DNP, B-tip, Bruker AFM probes, California, CA, USA). The AFM imaging of HeLa was used on the AAC mode and the cantilever was used as the D-tip (DNP, D-tip, Bruker AFM probes, Camarillo, California, CA, USA). A single bacterial colony was picked and cultured in Mueller–Hinton (MH) medium for 18–20 h. […] The E. coli and peptide-treated bacteria samples (after treatment for 30 min) were applied onto mica and imaged in air using the contact mode and recorded with 512 × 512 pixels. The images of HeLa cells and peptide-treated HeLa cells (after treatment for 5 min) were obtained in Dulbecco’s Modified Eagle’s medium (DMEM) using the Acoustic AC (AAC) mode and recorded with 512 × 512 pixels. […]
compound,measurement,setting,value
CC[C@H](C)[C@H](NC(=O)[C@H](C)NC(=O)[C@H](CCCCN)NC(=O)[C@H](CC(C)C)NC(=O)[C@H](C)NC(=O)[C@@H](NC(=O)[C@H](Cc1cnc[nH]1)NC(=O)[C@H](CC(C)C)NC(=O)[C@@H](NC(=O)[C@@H](NC(=O)[C@H](CCCCN)NC(=O)[C@H](CCCCN)NC(=O)[C@H](C)NC(=O)[C@H](CO)NC(=O)[C@H](CCCCN)NC(=O)[C@H](Cc1ccccc1)NC(=O)[C@@H](NC(=O)[C@H](CCCCN)NC(=O)[C@H](CC(C)C)NC(=O)[C@H](Cc1ccccc1)NC(=O)[C@H](CO)NC(=O)[C@H](CCCCN)NC(=O)[C@H](Cc1c[nH]c2ccccc12)NC(=O)[C@H](CCCCN)NC(C)=O)[C@@H](C)O)[C@@H](C)O)C(C)C)[C@@H](C)O)C(=O)N[C@@H](CO)C(=O)N[C@@H](CO)C(N)=O [Peptide V13K],MHC (minimal hemolytic concentration),[1],250 µM
same,IC50,MIA PaCa-2,24.8 ± 0.6 µM
same,IC50,HPAC,7.6 ± 4 µM
same,IC50,HeLa,16 ± 0.5 µM
same,IC50,BxPC-3,12.5 ± 1.2 µM
same,Morphology of HeLa cell membrane by AFM,HeLa cells,pores and cavities were visible on the surface of the cells
